In US7666985B2, “HLA-A24-restricted cancer antigen peptides” (International Institute of Cancer Immunology, Inc., priority 2002, dated 2010):
Entries after “also recorded” stand apart in the source; their conditions may differ. Like-named read-outs stand apart in the source and are kept apart here. Square brackets hold non-standard residues; d marks the D form. Ends that are not written are not given here. Abu = CC[C@H](N)C(=O)O

Columns and labels:
[1] = system: C1R-A*2402 cells pulsed with the natural peptide of SEQ ID NO: 7; conditions: PBMC from HLA-A2402 positive healthy donors stimulated in vitro with 10 μM peptide; E/T ratio of 10, 20 or 40
Description: (§1) Peripheral blood mononuclear cells were separated from healthy donors positive for HLA-A2402, and were placed into wells of a 24-well plate at 4×10^6 cells/well. To the wells, the natural peptide of SEQ ID NO: 7 or the altered peptide of SEQ ID NO: 3 was added at a concentration of 10 μM, and the mixture was incubated for a week in a culture medium comprising 45% RPMI1640, 45% AIV, 10% inactivated human AB serum, 1× nonessential amino acids, 25 ng/ml 2-mercaptoethanol, […] streptomycin, and 50 U/ml penicillin. After the incubation, the cells were adjusted to 2×10^6 cells/well, which were used as responder cells hereafter. On the other hand, peripheral blood mononuclear cells separated from the same healthy donors were incubated together with 10 μM of either of these peptides for 4 hours to accomplish the pulsing with peptide, and then radiated at 30 Gy. The cells were adjusted to 4×10^6 cells/well, which were used as stimulator cells hereafter.
(§2) The responder cells and the stimulator cells thus prepared were mixed together, and the mixture was added with IL-2 at 30 U/ml, and incubated. A similar stimulation of the responder cells with the stimulator cells was conducted three times with an interval of a week. The cytotoxic activity in those cells thus obtained was determined by ^51Cr release assay wherein the cytotoxic activity was determined by reacting the C1R-A*2402 cells positive for an HLA-A24 (Int. J. Cancer, 81, p 387, 1999) labeled with ^51Cr that were pulsed with the natural peptide of SEQ ID NO: 7 as target cells (T), and the cells stimulated with the natural peptide of SEQ ID NO: 7 or the altered peptide of SEQ ID NO: 3 as described above (effector cells)(E) at an E/T ratio of 10, 20 or 40. […] Further, a lung cancer cell line positive for WT1 and positive for an HLA-A24, RERF-LC-AI cells; a lung cancer cell line positive for WT1 and negative for an HLA-A2402, 11-18 cells; or a lung cancer cell line negative for WT1 and positive for an HLA-A24, 11-18 cells were used as target cells to determine the cytotoxic activities of the effector cells described above in a similar manner by ^51Cr release assay.

RERF-LC-AI cells = conditions: PBMC effector cells stimulated with peptide, targets RERF-LC-AI (WT1+, HLA-A24+) versus WT1+/HLA-A2402- and WT1-/HLA-A24+ lung cancer lines (LK87, 11-18)
Description: as §1, §2

[2] = system: Jurkat-A2402/K^b cells pulsed with the natural or non-substituted peptide; conditions: for cross-reactivity of effector cells induced by the substituted peptide to the non-substituted peptide (cytotoxic activity): mice immunized with peptide M or N, targets pulsed with peptide M or N, with peptide H, or without any peptide
Description: Cross-reactivity of the effector cells induced by the altered peptide to the natural peptide was tested. Effector cells induced by immunizing the mice with the altered form: peptide H (E) and target cells of the Jurkat-A2402/K^b cells pulsed with the natural form: peptide C (T) were combined and reacted at an E/T ratio of 80, and the cytotoxic activity was determined by ^51Cr release assay.
Cross-reactivity of the effector cells induced by the substituted peptide to the non-substituted peptide was tested. To effector cells induced by immunizing the mice with peptide M or N (E), target cells of the Jurkat-A2402/K^b cells pulsed with peptide M or N, with peptide H, or without any peptide (T) were reacted, and the cytotoxic activities of the effector cells were determined by ^51Cr release assay.

[3] = system: Jurkat-A2402/K^b cells pulsed with the peptide; test: CTL-inducing activity (immunogenicity) in HLA-A2402/K^b transgenic mouse, 51Cr release assay; format: in vivo; conditions: for induction of specific CTLs (cytotoxic activity, % Specific Lysis): Reference 9: transgenic mouse (04-1 line) immunized with known HLA-A24-restricted cancer antigen peptide + helper peptide in IFA; for induction of specific CTLs (cytotoxic activity, % Specific Lysis) / immunogenicity (activity to induce CTLs; cytotoxic activity, % Specific Lysis): peptide-pulsed vs non-pulsed Jurkat-A2402/K^b targets; for immunogenicity (activity to induce CTLs; cytotoxic activity, % Specific Lysis): HLA-A2402/K^b transgenic mice (three per peptide) immunized s.c. with peptide + helper peptide in IFA, splenocytes stimulated in vitro 6 days, E/T ratio of 80
Description: Specifically, HER-2/neu780-788 and helper peptide were adjusted to 40 mg/ml and 20 mg/ml, respectively, in DMSO and diluted with a physiological saline to 2 mg/ml and 1 mg/ml, respectively. They were mixed with an equal amount of Freund's incomplete adjuvant (Wako Pure Chemical Industries, Ltd.) using a glass syringe to prepare a water-in-oil emulsion. The resultant preparation (200 μl) was injected into a transgenic mouse (04-1 line) subcutaneously in the base of the tail for immunization. Seven days after the initiation of experiment, the spleen was removed and grounded on the frosted part of glass slide, and splenocytes were recovered and prepared. A portion of the splenocytes undergone hemolysis treatment with an ACK buffer (0.15 M NH4Cl, 10 mM KHCO3, 0.1 mM EDTA, pH 7.2-7.4) was exposed to X ray radiation (2,000 rad), pulsed with the above-mentioned peptide (100 μg/ml) for 1 hour, and seeded into a 24-well plate at 0.7×10^6/well. Non-radiated, non-peptide-pulsed splenocytes (7×10^6/well) were added together and stimulated again at 37° C. (final concentration of peptide, 1 μg/ml). In vitro stimulation was carried out for 6 days in […] of a culture solution (CTM culture solution) containing 10% FCS, 10 mM HEPES, 20 mM L-glutamine, 1 mM sodium pyruvate, 1 mM MEM nonessential amino acid, 1% MEM vitamin and 55 μM 2-mercaptoethanol in RPMI 1640 medium.
On the other hand, Jurkat-A2402/K^b cells prepared in Reference 8 were labeled with ^51Cr (3.7 MBq/10^6 cells) and pulsed with the peptide above at 100 μg/ml for one hour. The labeling was carried out over 2 hours, and 1 hour after initiation of labeling, peptide was added to make the final concentration 100 μg/ml. Cells that were not pulsed with peptide were prepared as control target cells.
CTL-inducing activity was determined by ^51Cr release assay (J. Immunol., 159:4753, 1997), wherein the previously prepared transgenic mouse splenocyte preparation was added to said Jurkat-A2402/K^b cells as the target cells.
Immunogenicity of each antigen peptide was evaluated using the HLA-A2402/K^b transgenic mouse as constructed in aforementioned References. For the evaluation of each peptide for its immunogenicity, three transgenic mice were immunized with one peptide.
Specifically, each antigen peptide and the helper peptide were adjusted to 40 mg/ml and 20 mg/ml, respectively, in DMSO, and diluted with a physiological saline to 2 mg/ml and 1 mg/ml, respectively. They were then mixed with an equal amount of Freund's incomplete adjuvant (IFA) using a glass syringe to prepare a water-in-oil emulsion. The resultant emulsion (200 μl) was injected into the HLA-A2402/K^b transgenic mouse subcutaneously in the base of the tail for immunization. Seven days after the initiation of experiment, the spleen was removed and grounded on the frosted part of glass slide, and splenocytes were recovered and prepared. A portion of the splenocytes undergone hemolysis treatment with an ACK buffer (0.15 M NH4Cl, 10 mM KHCO3, 0.1 mM EDTA, pH 7.2-7.4) was exposed to X ray radiation (2,000 rad), then pulsed with the above-mentioned peptide (100 μg/ml) for 1 hour, and seeded into a 24-well plate at 7×10^6/well. Simultaneously, non-radiated, non-peptide-pulsed splenocytes (7×10^5/well) were added together and stimulated in vitro at 37° C. for 6 days. The in vitro stimulation was carried out in RPMI1640 medium supplemented with 10% FCS, 10 mM HEPES, 20 mM L-glutamine, 1 mM sodium pyruvate, 1 mM MEM nonessential amino acids, 1% MEM vitamin and 55 μM 2-mercaptoethanol.
Then, the test for cytotoxic activity was conducted according to the conventional manner. Jurkat-A2402/K^b cells (Reference 8), and Jurkat-A2402/K^b cells pulsed with the peptide were used as target cells (T). These cells were labeled with ^51Cr (3.7 MBq/10^6 cells) and pulsed with the peptide at 100 μg/ml for one hour (The labeling was carried out over 2 hours, and 1 hour after the initiation of labeling, the peptide was added).

RVPGVAPTL [peptide B] was tested, and the “CTL-inducing activity (cytotoxic activity)” value [1] was “CTLs were induced”, the “cytotoxic activity of effector cells on lung cancer cell lines” value (“cytotoxic activity of effector cells” for short) (RERF-LC-AI cells) was “CTLs were induced” and the “cytotoxic activity of effector cells” value (RERF-LC-AI cells; listed as SEQ ID NO: 7) was “specifically injured only the RERF-LC-AI cells”.
RYPSCQKKF [peptide H] was tested, and the “cross-reactivity of effector cells induced by the altered peptide to the natural peptide (cytotoxic activity)” value ([2]; mice immunized with peptide H, targets pulsed with peptide H or natural peptide C, E/T ratio of 80) was “exhibited a cytotoxic activity against both cells pulsed with the altered and natural forms”.
In the case of “CEA652-660: known HLA-A24-restricted cancer antigen peptide derived from CEA [reference compound]”, the “induction of specific CTLs (cytotoxic activity, % Specific Lysis)” value [3] is reported as “induction of specific CTLs by stimulation with these known HLA-A24-resticted cancer antigen peptides was observed; also recorded: specific CTLs were induced”.
For “NYMNLGATL [peptide J, altered peptide L, position 2 altered into tyrosine]”, the “immunogenicity (activity to induce CTLs; cytotoxic activity, % Specific Lysis)” value [3] was “have a high immunogenicity; also recorded: specific CTLs were induced”.
With “NQMNLGATL [peptide L, natural peptide, positions 239 to 247 of human WT1]” the “immunogenicity (activity to induce CTLs; cytotoxic activity, % Specific Lysis)” value [3] was “have no immunogenicity; also recorded: no specific CTL was induced”.
For RYPSAQKKF [peptide N], the “cross-reactivity of effector cells induced by the substituted peptide to the non-substituted peptide (cytotoxic activity)” value [2] was “exhibited a cytotoxic activity against all of the cells pulsed with the substituted peptides”.
RYPGVAPTL [peptide G] was tested, and the “CTL-inducing activity (cytotoxic activity)” value [1] was “CTLs were induced” and the “cytotoxic activity of effector cells” value (RERF-LC-AI cells) was “CTLs were induced”.
With “ALLPAVPSL [peptide K, natural peptide, positions 10 to 18 of human WT1]” the “immunogenicity (activity to induce CTLs; cytotoxic activity, % Specific Lysis)” value [3] was “have no immunogenicity; also recorded: no specific CTL was induced”.
For “HER-2/neu780-788: HLA-A24-restriced peptide derived from human tumor antigen HER-2/neu (PYVSRLLGI) [reference compound]”, the “induction of specific CTLs (cytotoxic activity, % Specific Lysis)” value [3] was “induction of specific CTLs by stimulation with HER-2/neu780-788 was observed” and the “induction of specific CTLs (cytotoxic activity, % Specific Lysis)” value ([3]; listed as HER2/neu780-788) was “specific CTLs were induced”.
For “MAGE-3195-203: known HLA-A24-restricted cancer antigen peptide derived from MAGE-3 [reference compound]”, the “induction of specific CTLs (cytotoxic activity, % Specific Lysis)” value [3] was “induction of specific CTLs by stimulation with these known HLA-A24-resticted cancer antigen peptides was observed; also recorded: specific CTLs were induced”.
In the case of “AYPGCNKRYF [peptide E, natural peptide, positions 326 to 335 of human WT1]”, the “immunogenicity (activity to induce CTLs; cytotoxic activity, % Specific Lysis)” value [3] is reported as “no specific CTL was induced”.
For “Arg-Tyr-Pro-Ser-Abu-Gln-Lys-Lys-Phe (RYPS[Abu]QKKF) [peptide O, peptide H with cysteine at position 5 substituted with α-aminobutyric acid]”, the “immunogenicity (cytotoxic activity, % Specific Lysis)” value ([3]; Example 5: HLA-A24 expressing transgenic mouse immunized with peptide, effector and target cells mixed at various E/T ratios) was “immunogenicity equivalent to the non-substituted peptide, peptide H; also recorded: specific CTLs were induced”.
With “QYRIHTHGVF [peptide D, natural peptide, positions 285 to 294 of human WT1]” the “immunogenicity (activity to induce CTLs; cytotoxic activity, % Specific Lysis)” value [3] was “no specific CTL was induced”.
RYPSSQKKF [peptide M] was tested, and the “cross-reactivity of effector cells induced by the substituted peptide to the non-substituted peptide (cytotoxic activity)” value [2] was “exhibited a cytotoxic activity against all of the cells pulsed with the substituted peptides”.
For RYFPNAPYL [peptide F], the “immunogenicity (activity to induce CTLs; cytotoxic activity, % Specific Lysis)” value [3] was “have a high immunogenicity; also recorded: specific CTLs were induced”.
With “RWPSCQKKF [peptide C, natural peptide, positions 417 to 425 of human WT1]” the “immunogenicity (activity to induce CTLs; cytotoxic activity, % Specific Lysis)” value [3] was “have no immunogenicity; also recorded: no specific CTL was induced”.
For “CEA268-277: known HLA-A24-restricted cancer antigen peptide derived from CEA [reference compound]”, the “induction of specific CTLs (cytotoxic activity, % Specific Lysis)” value [3] was “induction of specific CTLs by stimulation with these known HLA-A24-resticted cancer antigen peptides was observed; also recorded: specific CTLs were induced”.
With “AYLPAVPSL [peptide I, altered peptide K, position 2 altered into tyrosine]” the “immunogenicity (activity to induce CTLs; cytotoxic activity, % Specific Lysis)” value [3] was “have a high immunogenicity; also recorded: specific CTLs were induced”.
